Data on three compounds can be found in patent US20230168243A1, “METHODS FOR DIAGNOSING IMMEDIATE HYPERSENSITIVY REACTION” (Universiteit Antwerpen, priority 2020, published 2023).

Test [1] deals with cultured human donor mast cells (dMCs). The experiment in a line: Direct mast cell activation: CD63 upregulation on donor mast cells not passively sensitized with serum (dMCIgE-). It is filed as cell-based. The note with it: for CD63 upregulation / activation of unsensitized (unloaded) mast cells: MCs not passively sensitized with patients' serum.
The test system is the same in test [2]. The experiment in a line: Mast cell activation test (MAT): CD63 upregulation on donor mast cells passively sensitized with patients' sera (dMCIgE+), flow cytometry. It is filed as cell-based. The note with it: for up-regulation of CD63 (% of the cells): donor MCs passively sensitized with serum containing chlorhexidine-reactive IgE antibodies, FIG. 7; for CD63 upregulated after activation / CD63 upregulation: dMCIgE+ sensitized with patients' sera, mean; for CD63 upregulated after activation: first donor, 20 min; for CD63 upregulation: second donor. On the procedure: Human MCs were cultured as described in Cop N, et al. Influence of IL-6, IL-33, and TNF-alpha on human mast cell activation: Lessons from single cell analysis by flow cytometry. Cytometry B Clin Cytom 2018; 94:405-11. Briefly, peripheral blood mononuclear cells were isolated from 50 mL peripheral blood from healthy volunteers. CD34^+ progenitor cells were enriched using the EasySep Human CD34 Selection Kit (Stemcell Technologies, Vancouver, Canada) according to the manufacturer's instructions. Isolated CD34^+ progenitor cells were cultured in a serum-free methylcellulose-based medium (MethoCult SF H4236, Stemcell Technologies) supplemented with penicillin (100 units/mL, Life Technologies, Waltham, USA), streptomycin (100 μg/mL, Life Technologies), low-density lipoprotein (LDL, 10 μg/mL, Stemcell Technologies), 2-mercaptoethanol (55 μmol/L, Life Technologies), stem cell factor (SCF, 100 ng/mL, Miltenyi Biotec, Bergisch Gladbach, Germany), interleukin-3 (IL-3, 100 ng/mL, PeproTech, Rocky Hill, USA) and interleukin-6 (IL-6, 50 ng/mL, Miltenyi Biotec) during 4-5 weeks. Participants gave a written informed consent as approved by the Ethical Committee of the University Hospital of Antwerp (Belgium B300201316408).
Degranulation of dMC was measured by overnight passively sensitizing the cells with serum at 37° C. in a humidified CO2-incubator. Next, dMC^IgE+ were centrifuged (500 g, 5 minutes, 20° C.) and the cell pellet was resolved in pre-warmed Tyrode's buffer (Sigma-Aldrich, St. Louis, USA) at a concentration of 0.5×10^6 cells/mL. Thereafter, 100 μL of the cells were pre-incubated with IL-33 (100 ng/mL) (Peprotech) for 20 minutes on 37° C. Subsequently, these pre-incubated dMC^IgE+ were stimulated with 100 μL Tyrode's buffer as a negative control or 100 μL of CHX (Sigma-Aldrich) during 20 minutes at 37° C. The final concentrations of CHX were: 0.05, 5, 500, 50 000 ng/mL, i.e. 0.0028, 0.28, 28; 2800 nM). Reactions were stopped by placing the cells on ice and removing the supernatants (500 g, 5 minutes, 4° C.). Cells were stained with monoclonal anti-human CD117-APC (clone 104D2, BD Biosciences, Erembodegem, Belgium), CD203c-PeCy7 (clone NP4D6, eBioscience) and CD63-FITC (clone H5C6, BD Bioscience) for 20 minutes at 4° C. Finally, cells were washed and resolved in PBS with 0.1% sodium azide and measured. Degranulation of dMCs was measured as surface upregulation of the lysosomal degranulation marker CD63. The mast cell activation test is repeated on dMCs of two different volunteers.
Flow cytometric analysis was performed on a FACSCanto II flow cytometer (BD Immunocytometry Systems, San Jose, Calif.) equipped with three lasers (405 nm, 488 nm and 633 nm). Correct compensation settings for antibodies conjugated with fluorochromes were performed using BD CompBeads (BD Biosciences). Flow cytometric data were analyzed using Kaluza Analysis 1.5 software (Beckman Coulter, USA). Unstained samples were used to set a marker between positive and negative cells according to the 99th percentile. A fluorescence minus one (FMO) was used to set a marker between positive and negative cells. Mast cells were gated out as CD117 and CD203c positive cells. Results are expressed as mean and range.
Human MCs were obtained as described in Example 1. Sera from patients with perioperative anaphylaxis were selected based on the presence of sIgE against rocuronium >0.13 kUa/L and a positive skin test rocuronium. MC activation was determined as described in Example 1 and cells were stimulated during 3 and 20 minutes, preferably 20 minutes, with final concentrations of rocuronium of 1.64, 16.4, 164 and 1640 μM.
Human MCs were obtained as described in Example 1.
On the technique in general: Flow cytometry measures light scatter and fluorescence of single cells or particles in a stream.

On to `C=CC[N+]1([C@H]2C[C@H]3[C@@H]4CC[C@H]5C[C@H](O)[C@@H](N6CCOCC6)C[C@]5(C)[C@H]4CC[C@]3(C)[C@H]2OC(C)=O)CCCC1` [rocuronium], for which the “CD63 upregulation after stimulation” value was 0% in test [1] (dMCIgE- not passively sensitized, rocuronium end concentration 164 μM, representative plot FIG. 6) and 24% in test [2] (dMCIgE+ sensitized with serum of a rocuronium-allergic patient, rocuronium end concentration 164 μM, representative plot FIG. 6).
For the compound `CCCCCCCCN=c1ccn(CCCCCCCCCCn2ccc(=NCCCCCCCC)cc2)cc1` [octenidine], in test [1], the “CD63 upregulation / activation of unsensitized (unloaded) mast cells” value is given as “did not upregulate CD63”. In test [2], the “up-regulation of CD63 (% of the cells)” value is 18%.
Turning to `[H]/N=C(\N/C(=N/[H])NCCCCCCNC(=N)NC(=N)Nc1ccc(Cl)cc1)Nc1ccc(Cl)cc1` [chlorhexidine, 1:6-di(4-chlorophenyldiguanido)-hexane], the results for the “CD63 upregulation / activation of unsensitized (unloaded) mast cells” value in test [1] and in test [1] (listed as CHX) were “did not upregulate CD63” and “could not elicit activation/degranulation”, respectively. Also, in test [2] (dMC sensitized with sera of patients with isolated sIgE CHX (negative skin test and BAT)), the “CD63 upregulation (degranulation)” value is recorded as “no upregulation of CD63”. For the same compound, the “CD63 upregulated after activation” value in test [2] (CHX 0.05 ng/mL (0.0028 nM), printed range 1-22) turned out to be 1%; in test [2] (CHX 5 ng/mL (0.28 nM), printed range 1-76) it was 10%; in test [2] (CHX 500 ng/mL (28 nM), printed range 6-86), 57%; in test [2] (CHX 50000 ng/mL (2800 nM), printed range 0-88), 31%. The CD63 upregulation in test [2] (CHX 0.05 ng/mL (0.0028 nM), printed range 0-21) worked out at 2%; in test [2] (CHX 5 ng/mL (0.28 nM), printed range 2-44), 7%; in test [2] (CHX 500 ng/mL (28 nM), printed range 3-64) it was 30%; in test [2] (CHX 50000 ng/mL (2800 nM), printed range 0-73), 45%. Besides, the “up-regulation of CD63 (% of the cells)” value in test [2] was determined as 18%.
